Laboratory results as given in US20050107289A1, “Anti-microbial peptides and compositions” (priority 2001, published 2005).
Like-named read-outs stand apart in the source and are kept apart here. Non-standard residues stand in square brackets, D forms with d. Residues, ends and D or L forms follow the SMILES beside them.

Key:
[1] = tested on: S. aureus (MRSA) ATCC 33591; format: cell-based, Staphylococcus aureus; conditions: Table 9
Procedure, shortened: (§1)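 MIC read from NCCLS-style broth dilution. Peptide concentrations were set by quantitative HPLC or Trp UV absorbance at 280 nm, then serially halved from about 400 to 2 μg/ml in 5% DMSO/9% sucrose. Inoculum: approximately 2.5×10^5 cfu/ml.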

[2] = tested on: vancomycin-resistant Enterococus faecalis (VRE)(ATCC 51575); format: cell-based, Enterococcus faecalis; set-up: key to VRE (in vitro activity): peptide concentration in μg/ml (broth dilution assay); conditions: Table 9
Procedure, shortened: as §1

murine red blood cells = experiment: Red blood cell hemolysis; format: cell-based, mouse
Procedure, shortened: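 Washed murine erythrocytes at 5% in saline with 10% FBS were exposed to serial peptide dilutions for 30 min at 37° C. Supernatant absorbance at 560 nm was read, with saline as 0% and 1% Triton X-100 as 100% hemolysis.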

[3] = media b: cation adjusted Meuller Hinton broth (MHBII)
[4] = media c: Brain Heart Infusion (BHI)
[5] = media a: anti-microbial media-3 (AM-3)

| SMILES | MRSA (in vitro activity) [1, 3] | VRE (in vitro activity) [2, 4] | RBC Hemolysis (HD50) (murine red blood cells) | further results |
| --- | --- | --- | --- | --- |
| CC(C)C[C@H]1NC(=O)[C@H](CCCCN)NC(=O)[C@@H](CC(N)=O)NC(=O)[C@H](CCC(N)=O)NC(=O)[C@@H](CC(N)=O)NC(=O)[C@H](CCCCN)NC(=O)[C@@H](CC(C)C)NC(=O)[C@H](Cc2c[nH]c3ccccc23)NC1=O [SEQ ID NO:90, [KNQNKLWL]] (cyclo(K[dN]Q[dN]K[dL]W[dL])) | >200 | >200 | >200 | – |
| CC(C)C[C@@H]1NC(=O)[C@@H](Cc2c[nH]c3ccccc23)NC(=O)[C@H](CCCCN)NC(=O)[C@@H](CO)NC(=O)[C@H](CCCCN)NC(=O)[C@@H](CO)NC(=O)[C@H](CCCCN)NC(=O)[C@@H](Cc2c[nH]c3ccccc23)NC1=O [SEQ ID NO:91, [KSKSKWLW]] (cyclo(K[dS]K[dS]K[dW]L[dW])) | 6 | 12 | 200 | – |
| CC(C)C[C@@H]1NC(=O)[C@@H](Cc2c[nH]c3ccccc23)NC(=O)[C@H](CCCCN)NC(=O)[C@@H](CO)NC(=O)[C@H](CCC(N)=O)NC(=O)[C@@H](CO)NC(=O)[C@H](CCCCN)NC(=O)[C@@H](Cc2c[nH]c3ccccc23)NC1=O [SEQ ID NO:92, [KSQSKWLW]] (cyclo(K[dS]Q[dS]K[dW]L[dW])) | 9 | 18 | 195 | – |
| CC(C)C[C@@H]1NC(=O)[C@@H](Cc2c[nH]c3ccccc23)NC(=O)[C@H](CCCCN)NC(=O)[C@@H](CO)NC(=O)[C@H](CO)NC(=O)[C@@H](CO)NC(=O)[C@H](CCCCN)NC(=O)[C@@H](Cc2c[nH]c3ccccc23)NC1=O [SEQ ID NO:93, [KSSSKWLW]] (cyclo(K[dS]S[dS]K[dW]L[dW])) | 6 | 6 | 175 | – |
| NCCCC[C@@H]1NC(=O)[C@@H](Cc2ccc(O)cc2)NC(=O)[C@H](CCC(N)=O)NC(=O)[C@@H](Cc2ccc(O)cc2)NC(=O)[C@H](CCCCN)NC(=O)[C@@H](CC(N)=O)NC(=O)[C@H](Cc2c[nH]c3ccccc23)NC(=O)[C@@H](CC(N)=O)NC1=O [SEQ ID NO:94, [KYQYKNWN]] (cyclo(K[dN]W[dN]K[dY]Q[dY])) | >200 | >200 | >200 | – |
| C[C@H]1NC(=O)[C@H](CCC(N)=O)NC(=O)[C@@H](C)NC(=O)[C@H](CCCCN)NC(=O)[C@@H](C)NC(=O)[C@H](Cc2c[nH]c3ccccc23)NC(=O)[C@@H](C)NC(=O)[C@H](CCCCN)NC1=O [SEQ ID NO:95, [KAQAKAWA]] (cyclo(K[dA]Q[dA]K[dA]W[dA])) | >200 | >200 | >200 | – |
| C[C@H]1NC(=O)[C@H](CCCCN)NC(=O)[C@@H](CC(N)=O)NC(=O)[C@H](CCC(N)=O)NC(=O)[C@@H](C)NC(=O)[C@H](CCCCN)NC(=O)[C@@H](CC(N)=O)NC(=O)[C@H](Cc2c[nH]c3ccccc23)NC1=O [SEQ ID NO:96, [KAQNKAWN]] (cyclo(K[dA]Q[dN]K[dA]W[dN])) | >200 | >200 | >200 | – |
| C[C@H]1NC(=O)[C@H](CCCCN)NC(=O)[C@@H](Cc2ccccc2)NC(=O)[C@H](CCC(N)=O)NC(=O)[C@@H](C)NC(=O)[C@H](CCCCN)NC(=O)[C@@H](Cc2ccccc2)NC(=O)[C@H](Cc2c[nH]c3ccccc23)NC1=O [SEQ ID NO:97, [KAQFKAWF]] (cyclo(K[dA]Q[dF]K[dA]W[dF])) | 100 | 100 | >200 | – |
| NCCCC[C@@H]1NC(=O)[C@@H](Cc2ccccc2)NC(=O)[C@H](CCC(N)=O)NC(=O)[C@@H](Cc2ccccc2)NC(=O)[C@H](CCCCN)NC(=O)[C@@H](CC(N)=O)NC(=O)[C@H](Cc2c[nH]c3ccccc23)NC(=O)[C@@H](CC(N)=O)NC1=O [SEQ ID NO:98, [KFQFKNWN]] (cyclo(K[dF]Q[dF]K[dN]W[dN])) | >200 | >200 | >280 | – |
| CC(C)C[C@H]1NC(=O)[C@H](Cc2c[nH]c3ccccc23)NC(=O)[C@@H](Cc2ccccc2)NC(=O)[C@H](CCCCN)NC(=O)[C@@H](Cc2c[nH]c3ccccc23)NC(=O)[C@H](Cc2c[nH]cn2)NC(=O)[C@@H](CC(C)C)NC(=O)[C@H](Cc2c[nH]c3ccccc23)NC1=O [SEQ ID NO:99, [KFWLWLHW]] (cyclo(K[dF]W[dL]W[dL]H[dW])) | – | – | >25 | MRSA (in vitro activity) [1, 5]: 21; VRE (in vitro activity) ([2]; media a: AM-3): 21 |
| CC(C)C[C@H]1NC(=O)[C@H](Cc2c[nH]c3ccccc23)NC(=O)[C@@H](Cc2ccccc2)NC(=O)[C@H](CCCCN)NC(=O)[C@@H](Cc2ccccc2)NC(=O)[C@H](CCCCN)NC(=O)[C@@H](CC(C)C)NC(=O)[C@H](Cc2c[nH]c3ccccc23)NC1=O [SEQ ID NO:100, [KFWLWLKF]] (cyclo(K[dF]W[dL]W[dL]K[dF])) | – | – | >78 | MRSA (in vitro activity) [1, 5]: 11; VRE (in vitro activity) ([2]; media a: AM-3): 10 |
| N=C(N)NCCC[C@H]1NC(=O)[C@H](CCCCN)NC(=O)[C@@H](Cc2ccccc2)NC(=O)[C@H](Cc2c[nH]c3ccccc23)NC(=O)[C@@H](Cc2ccccc2)NC(=O)[C@H](CCCCN)NC(=O)[C@@H](Cc2ccccc2)NC(=O)[C@H](CCC(N)=O)NC1=O [SEQ ID NO:102, [KRQFKFWF]] (cyclo(K[dR]Q[dF]K[dF]W[dF])) | 12 | 12 | >200 | – |
| CC(C)C[C@H]1NC(=O)[C@H](CCCCN)NC(=O)[C@@H](CO)NC(=O)[C@H](CCCCN)NC(=O)[C@@H](CC(C)C)NC(=O)[C@H](Cc2c[nH]cn2)NC(=O)[C@@H](CC(C)C)NC(=O)[C@H](Cc2c[nH]cn2)NC1=O [SEQ ID NO:103, [KSKLHLHL]] (cyclo(K[dS]K[dL]H[dL]H[dL])) | >320 | >320 | >320 | – |
| CC(C)C[C@H]1NC(=O)[C@H](CCCCN)NC(=O)[C@@H](CO)NC(=O)[C@H](CCCCN)NC(=O)[C@@H](CC(C)C)NC(=O)[C@H](CCC(N)=O)NC(=O)[C@@H](CC(C)C)NC(=O)[C@H](CCC(N)=O)NC1=O [SEQ ID NO:104, [KSKLQLQL]] (cyclo(K[dS]K[dL]Q[dL]Q[dL])) | >200 | >200 | >200 | – |
| CC(C)C[C@H]1NC(=O)[C@H](CCCCN)NC(=O)[C@@H](CO)NC(=O)[C@H](CCCCN)NC(=O)[C@@H](CC(C)C)NC(=O)[C@H](CCCNC(=N)N)NC(=O)[C@@H](CC(C)C)NC(=O)[C@H](CCCNC(=N)N)NC1=O [SEQ ID NO:105, [KSKLRLRL]] (cyclo(K[dL]R[dL]R[dL]K[dS])) | – | – | >240 | MRSA (in vitro activity) ([1]; media b: cation adjusted Meuller Hinton broth (MHBII), listed as [KSKLRLRL] (105)): >240; VRE (in vitro activity) ([2]; media c: Brain Heart Infusion (BHI), listed as [KSKLRLRL] (105)): >240 |
| CC(C)C[C@H]1NC(=O)[C@H](CCCCN)NC(=O)[C@@H](CO)NC(=O)[C@H](CCCCN)NC(=O)[C@@H](CC(C)C)NC(=O)[C@H](CCCNC(=N)N)NC(=O)[C@@H](CC(C)C)NC(=O)[C@H](CCCNC(=N)N)NC1=O [SEQ ID NO:106, [KSKLRLRL]] (cyclo(K[dL]R[dL]R[dL]K[dS])) | – | – | >400 | MRSA (in vitro activity) ([1]; media b: cation adjusted Meuller Hinton broth (MHBII), listed as [KSKLRLRL] (106)): >400; VRE (in vitro activity) ([2]; media c: Brain Heart Infusion (BHI), listed as [KSKLRLRL] (106)): >400 |
| CC(C)C[C@@H]1NC(=O)[C@@H](Cc2c[nH]c3ccccc23)NC(=O)[C@H](CO)NC(=O)[C@@H](Cc2c[nH]c3ccccc23)NC(=O)[C@H](CCCCN)NC(=O)[C@@H](Cc2c[nH]c3ccccc23)NC(=O)[C@H](CCCCN)NC(=O)[C@@H](Cc2c[nH]c3ccccc23)NC1=O [SEQ ID NO:107, [KWKWSWLW]] (cyclo(K[dW]K[dW]S[dW]L[dW])) | 12 | 12 | 150 | – |
| CC[C@@H](C)[C@H]1NC(=O)[C@H](C)NC(=O)[C@@H](Cc2c[nH]c3ccccc23)NC(=O)[C@H](C(C)C)NC(=O)[C@@H](CCCNC(=N)N)NC(=O)[C@H](CCCCN)NC1=O [SEQ ID NO:113, [KRVWAI]] (cyclo(K[dR]V[dW]A[dI])) | >200 | >200 | >200 | – |
| CC[C@H](C)[C@@H]1NC(=O)[C@@H](Cc2c[nH]c3ccccc23)NC(=O)[C@H](CCCCN)NC(=O)[C@@H](CCCNC(=N)N)NC(=O)[C@H](C)NC(=O)[C@@H](CC(C)C)NC1=O [SEQ ID NO:114, [KWILAR]] (cyclo(K[dW]I[dL]A[dR])) | 50 | >200 | >200 | – |
| CC(C)C[C@@H]1NC(=O)[C@@H](Cc2c[nH]c3ccccc23)NC(=O)[C@H](CCC(N)=O)NC(=O)[C@@H](Cc2c[nH]c3ccccc23)NC(=O)[C@H](CCCCN)NC(=O)[C@@H](Cc2c[nH]c3ccccc23)NC1=O [SEQ ID NO:116, [KWQWLW]] (cyclo(K[dW]Q[dW]L[dW])) | – | – | >16 | MRSA (in vitro activity) [1, 5]: 12; VRE (in vitro activity) ([2]; media a: AM-3): 12 |
| CC(C)C[C@@H]1NC(=O)[C@@H](Cc2c[nH]c3ccccc23)NC(=O)[C@H](CCCCN)NC(=O)[C@@H](CCC(=O)O)NC(=O)[C@H](CCCCN)NC(=O)[C@@H](Cc2c[nH]c3ccccc23)NC1=O [SEQ ID NO:117, [KEKWLW]] (cyclo(K[dE]K[dW]L[dW])) | – | – | >121 | MRSA (in vitro activity) [1, 5]: 101; VRE (in vitro activity) ([2]; media a: AM-3): 91 |
